Data as given in patent US11076595B2, “1-(n,n-disubstituted carbamoyl) 4-(substituted sulfonyl)triazolin-5-one derivative, 4-(n,n-disubstituted carbamoyl) 1-(substituted sulfonyl)triazolin-5-one derivative, and herbicide containing said derivative as active ingredient” (HOKKO CHEMICAL INDUSTRY CO., LTD., priority 2017, dated 2021).

Assays:
Assay type in all cases: in vivo
crabgrass [1] = experiment: Test Example 13: herbicidal effect test by soil treatment in upland field; conditions: 120 g/10a, 14 days after treatment
Protocol: (§1) A pot having a size of 36 cm^2 was filled with field soil (alluvial soil) and after mixing the soil of the surface layer of 1 cm with 20 grains of each weed seed of crabgrass, Echinochloa crus-galli, Chenopodium album and Amaranthus viridis, the surface layer was pressed lightly. One day after the sowing, an emulsifiable concentrate prepared according to Formulation Example 15 by using the compound shown in Table 11 below was diluted with water, and the water-diluted formulation was sprayed on the soil surface at a ratio of 100 liter per 10 are. The application rate of the active ingredient, by conversion, corresponded to 120 g per 10 are. Fourteen Days after the formulation treatment, the herbicidal effect was evaluated by the same criteria as in Test Example 11.

Echinochloa crus-galli [2] = experiment: as above; conditions: 120 g/10a, 14 days after treatment
Protocol: as §1

Amaranthus viridis [3] = experiment: as above; conditions: 120 g/10a, 14 days after treatment
Protocol: as §1

Chenopodium album [4] = experiment: as above; conditions: 120 g/10a, 14 days after treatment
Protocol: as §1

Lindernia pyxidaria [5] = experiment: Test Example 11: herbicidal effect test by soil treatment in paddy field; conditions: 120 g/10a active ingredient, 14 days after treatment
Method in brief: (§2)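 Pre-emergence flooded-paddy test: the water-diluted emulsifiable concentrate, 120 g active ingredient per 10 are, was dripped into pots immediately after seeding, with water held at about 3 cm. Two replicate pots per rate; 14 days after treatment, plant dry weight versus untreated pots gave the weed suppression rate.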

Monochoria vaginalis [6] = experiment: as above; conditions: 120 g/10a active ingredient, 14 days after treatment
Method in brief: as §2

Echinochloa crus-galli [7] = experiment: as above; conditions: 120 g/10a active ingredient, 14 days after treatment
Method in brief: as §2

Scirpus juncoides [8] = experiment: as above; conditions: 120 g/10a active ingredient, 14 days after treatment
Method in brief: as §2

Lindernia pyxidaria [9] = experiment: Test Example 12: herbicidal effect test by treatment during growing period in paddy field; conditions: 120 g/10a; treatment seven days after sowing in flooded paddy pot; assessed 14 days after treatment
Method in brief: (§3)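 Weed suppression (%) = (1 − treated/untreated mean dry weight) × 100, scored 14 days after treatment with two replicates per plot. Dose 120 g a.i. per 10 are, as diluted emulsifiable concentrate added dropwise to flooded pots (water about 3 cm) 7 days post-sowing, seeds at 0-1 cm.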

Monochoria vaginalis [10] = experiment: as above; conditions: 120 g/10a; treatment seven days after sowing in flooded paddy pot; assessed 14 days after treatment
Method in brief: as §3

Echinochloa crus-galli [11] = experiment: as above; conditions: 120 g/10a; treatment seven days after sowing in flooded paddy pot; assessed 14 days after treatment
Method in brief: as §3

Scirpus juncoides [12] = experiment: as above; conditions: 120 g/10a; treatment seven days after sowing in flooded paddy pot; assessed 14 days after treatment
Method in brief: as §3

crabgrass [13] = experiment: Test Example 14: herbicidal effect test by foliage treatment in upland field; conditions: 7 days after sowing, 120 g/10a, 14 days after treatment
Method in brief: (§4)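 Dose: 120 g a.i. per 10 are, sprayed in 100 L water per 10 are onto pots seven days post-sowing in alluvial soil. After 14 days, weed dry weight relative to untreated plots gave suppression rate (%); duplicate plots per concentration.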

Chenopodium album [14] = experiment: as above; conditions: 7 days after sowing, 120 g/10a, 14 days after treatment
Method in brief: as §4

Echinochloa crus-galli [15] = experiment: as above; conditions: 7 days after sowing, 120 g/10a, 14 days after treatment
Method in brief: as §4

Amaranthus viridis [16] = experiment: as above; conditions: 7 days after sowing, 120 g/10a, 14 days after treatment
Method in brief: as §4

Compound | herbicidal effect, Crabgrass (crabgrass [1]) [%] | herbicidal effect, Echinochloa crus-galli (Echinochloa crus-galli [2]) [%] | herbicidal effect, Amaranthus viridis (Amaranthus viridis [3]) [%] | herbicidal effect, Chenopodium album (Chenopodium album [4]) [%] | Weed suppression rate (%) Lindemia pyxidaria (Lindernia pyxidaria [5]) [%] | Weed suppression rate (%) Monochoria vaginalis (Monochoria vaginalis [6]) [%] | Weed suppression rate (%) Echinochloa crus-galli (Echinochloa crus-galli [7]) [%] | Weed suppression rate (%) Scirpus juncoides (Scirpus juncoides [8]) [%] | Weed suppression rate (%) Lindemia pyxidaria (Lindernia pyxidaria [9]) [%] | Weed suppression rate (%) Monochoria vaginalis (Monochoria vaginalis [10]) [%] | Weed suppression rate (%) Echinochloa crus-galli (Echinochloa crus-galli [11]) [%] | Weed suppression rate (%) Scirpus juncoides (Scirpus juncoides [12]) [%] | herbicidal effect, Crabgrass (crabgrass [13]) [%] | herbicidal effect, Chenopodium album (Chenopodium album [14]) [%] | herbicidal effect, Echinochloa crus-galli (Echinochloa crus-galli [15]) [%] | herbicidal effect, Amaranthus viridis (Amaranthus viridis [16]) [%]
Cc1cc(F)ccc1N(C(=O)n1cnn(S(C)(=O)=O)c1=O)C(C)C [Compound 11-25] | 100 | 80 | 30 | 30 | 70 | 60 | 90 | 90 | 70 | 70 | 100 | 100 | – | – | – | –
CC(C)N(C(=O)n1cnn(S(=O)(=O)c2ccc(Cl)cc2)c1=O)c1ccc(F)cc1F [Compound 11-588] | 60 | 80 | 40 | 80 | 90 | 90 | 90 | 90 | 90 | 90 | 80 | 70 | – | – | – | –
CCN(CC)C(=O)n1cnn(S(=O)(=O)c2ccccc2)c1=O [Compound 11-352] | 80 | 80 | 0 | 40 | 60 | 50 | 100 | 60 | 70 | 60 | 100 | 60 | – | – | – | –
Cc1ccc(N(C(=O)n2cnn(S(=O)(=O)C3CCCCC3)c2=O)C(C)C)c(F)c1 [Compound 11-308] | 90 | 80 | 90 | 80 | 90 | 90 | 90 | 90 | 80 | 80 | 90 | 90 | – | – | – | –
CCN(CC)C(=O)n1cnn(S(=O)(=O)c2ccccc2C)c1=O [Compound 11-622] | 80 | 90 | 40 | 40 | 40 | 0 | 90 | 40 | 50 | 50 | 90 | 50 | – | – | – | –
CC(C)N(C(=O)n1cnn(S(=O)(=O)c2c(F)c(F)c(F)c(F)c2F)c1=O)c1ccc(F)cc1Cl [Compound 11-818] | 100 | 100 | 60 | 60 | 100 | 100 | 100 | 100 | 80 | 100 | 100 | 100 | – | – | – | –
CCN(CC)C(=O)n1cnn(S(=O)(=O)c2ccc(C)cc2)c1=O [Compound 11-625] | 80 | 80 | 0 | 0 | 80 | 40 | 100 | 60 | – | – | – | – | – | – | – | –
CCN(CC)C(=O)n1cnn(S(=O)(=O)c2cccc(Cl)c2)c1=O [Compound 11-538] | 60 | 80 | 40 | 40 | 40 | 40 | 50 | 40 | 70 | 70 | 70 | 70 | – | – | – | –
CC(C)N(C(=O)n1cnn(S(=O)(=O)c2ccc(C(C)(C)C)cc2)c1=O)c1ccc(F)cc1F [Compound 11-682] | 80 | 90 | 40 | 40 | 90 | 90 | 100 | 90 | 90 | 90 | 90 | 80 | – | – | – | –
CC(C)N(C(=O)n1cnn(S(=O)(=O)c2cccnc2)c1=O)c1ccc(F)cc1F [Compound 11-985] | 80 | 80 | 0 | 0 | 60 | 40 | 90 | 40 | – | – | – | – | – | – | – | –
CCN(CC)C(=O)n1cnn(S(=O)(=O)c2ccc(C(C)(C)C)cc2)c1=O [Compound 11-670] | 70 | 70 | 0 | 0 | 70 | 50 | 50 | 60 | – | – | – | – | – | – | – | –
Cc1ccc(S(=O)(=O)n2ncn(C(=O)N(c3c(F)cc(F)cc3F)C(C)C)c2=O)cc1 [Compound 11-641] | – | – | – | – | 100 | 80 | 100 | 100 | 80 | 90 | 100 | 100 | 90 | 70 | 100 | 60
